≈ marks a conversion by molar mass, not a printed value.
How the values were obtained:
Aspergillus niger [1] = assay: Fungicidal activity against Aspergillus niger ATCC 6275 after 72 hrs; assay type: functional; conditions: ATCC 6275, 72 h
Enterococcus faecalis [2] = assay: Antibacterial activity against Enterococcus faecalis isolate obtained from human after 24 hrs by microdilution method; assay type: functional
Trichoderma viride [3] = assay: Antifungal activity against Trichoderma viride IAM 5061 after 72 hrs by serial dilution method; assay type: functional; conditions: IAM 5061, 72 h
Escherichia coli [4] = assay: Antibacterial activity against Escherichia coli ATCC 35210 after 24 hrs by microdilution method; assay type: functional; conditions: ATCC 35210, 24 h
Salmonella typhimurium [5] = assay: Antibacterial activity against Salmonella Typhimurium ATCC 13311 after 24 hrs by microdilution method; assay type: functional, Salmonella enterica subsp. enterica serovar Typhimurium; conditions: Salmonella enterica, ATCC 13311, 24 h
Penicillium ochrochloron [6] = assay: Antifungal activity against Penicillium ochrochloron ATCC 9112 after 72 hrs by serial dilution method; assay type: functional; conditions: ATCC 9112, 72 h
Bacillus cereus [7] = assay: Bactericidal activity against Bacillus cereus clinical isolate after 24 hrs; assay type: functional
[8] = Antifungal activity against Fusarium sporotrichioides IMT 496 after 72 hrs by serial dilution method; assay type: functional
Enterococcus faecalis [9] = assay: Ratio of Ampicillin MIC to compound MIC for Enterococcus faecalis after 24 hrs; assay type: functional
[10] = system: Fusarium sporotrichioides; assay: Fungicidal activity against Fusarium sporotrichioides IMT 496 after 72 hrs; assay type: functional; conditions: IMT 496, 72 h
Bacillus cereus [11] = assay: Antibacterial activity against Bacillus cereus clinical isolate after 24 hrs by microdilution method; assay type: functional
Talaromyces funiculosus [12] = assay: Fungicidal activity against Penicillium funiculosum ATCC 36839 after 72 hrs; assay type: functional; conditions: ATCC 36839, 72 h
Micrococcus flavus [13] = assay: Bactericidal activity against Micrococcus flavus ATCC 10240 after 24 hrs; assay type: functional; conditions: ATCC 10240, 24 h
Aspergillus niger [14] = assay: Antifungal activity against Aspergillus niger ATCC 6275 after 72 hrs by serial dilution method; assay type: functional; conditions: ATCC 6275, 72 h
Aspergillus versicolor [15] = assay: Antifungal activity against Aspergillus versicolor ATCC 11730 after 72 hrs by serial dilution method; assay type: functional; conditions: ATCC 11730, 72 h
Salmonella typhimurium [16] = assay: Bactericidal activity against Salmonella Typhimurium ATCC 13311 after 24 hrs; assay type: functional, Salmonella enterica subsp. enterica serovar Typhimurium; conditions: Salmonella enterica, ATCC 13311, 24 h
Talaromyces funiculosus [17] = assay: Antifungal activity against Penicillium funiculosum ATCC 36839 after 72 hrs by serial dilution method; assay type: functional; conditions: ATCC 36839, 72 h
Enterococcus faecalis [18] = assay: Bactericidal activity against Enterococcus faecalis isolate obtained from human after 24 hrs; assay type: functional
Listeria monocytogenes [19] = assay: Bactericidal activity against Listeria monocytogenes NCTC 7973 after 24 hrs; assay type: functional; conditions: NCTC 7973, 24 h
Aspergillus fumigatus [20] = assay: Antifungal activity against Aspergillus fumigatus plant isolate after 72 hrs by serial dilution method; assay type: functional
Listeria monocytogenes [21] = assay: Antibacterial activity against Listeria monocytogenes NCTC 7973 after 24 hrs by microdilution method; assay type: functional; conditions: NCTC 7973, 24 h
Micrococcus flavus [22] = assay: Antibacterial activity against Micrococcus flavus ATCC 10240 after 24 hrs by microdilution method; assay type: functional; conditions: ATCC 10240, 24 h
Pseudomonas aeruginosa [23] = assay: Bactericidal activity against Pseudomonas aeruginosa ATCC 27853 after 24 hrs; assay type: functional; conditions: ATCC 27853, 24 h
Staphylococcus aureus [24] = assay: Bactericidal activity against Staphylococcus aureus ATCC 6538 after 24 hrs; assay type: functional; conditions: ATCC 6538, 24 h
Penicillium ochrochloron [25] = assay: Fungicidal activity against Penicillium ochrochloron ATCC 9112 after 72 hrs; assay type: functional; conditions: ATCC 9112, 72 h
Trichoderma viride [26] = assay: Fungicidal activity against Trichoderma viride IAM 5061 after 72 hrs; assay type: functional; conditions: IAM 5061, 72 h
Aspergillus fumigatus [27] = assay: Fungicidal activity against Aspergillus fumigatus plant isolate after 72 hrs; assay type: functional
Aspergillus versicolor [28] = assay: Fungicidal activity against Aspergillus versicolor ATCC 11730 after 72 hrs; assay type: functional; conditions: ATCC 11730, 72 h
Pseudomonas aeruginosa [29] = assay: Antibacterial activity against Pseudomonas aeruginosa ATCC 27853 after 24 hrs by microdilution method; assay type: functional; conditions: ATCC 27853, 24 h
Escherichia coli [30] = assay: Bactericidal activity against Escherichia coli ATCC 35210 after 24 hrs; assay type: functional; conditions: ATCC 35210, 24 h
Aspergillus ochraceus [31] = assay: Fungicidal activity against Aspergillus ochraceus ATCC 12066 after 72 hrs; assay type: functional; conditions: ATCC 12066, 72 h
Staphylococcus aureus [32] = assay: Antibacterial activity against Staphylococcus aureus ATCC 6538 after 24 hrs by microdilution method; assay type: functional; conditions: ATCC 6538, 24 h
Aspergillus ochraceus [33] = assay: Antifungal activity against Aspergillus ochraceus ATCC 12066 after 72 hrs by serial dilution method; assay type: functional; conditions: ATCC 12066, 72 h
Micrococcus flavus [34] = assay: Ratio of Ampicillin MIC to compound MIC for Micrococcus flavus ATCC 10240 after 24 hrs; assay type: functional

Compound	MFC (Aspergillus niger [1])	MIC (Enterococcus faecalis [2])	MIC (Trichoderma viride [3])	MIC (Escherichia coli [4])	MIC (Salmonella typhimurium [5])	MIC (Penicillium ochrochloron [6])	MBC (Bacillus cereus [7])	MIC (10'-2 umol/ml) [8]	MFC [10]	MIC (Bacillus cereus [11])	MFC (Talaromyces funiculosus [12])	MBC (Micrococcus flavus [13])	MIC (Aspergillus niger [14])	MIC (Aspergillus versicolor [15])	MBC (Salmonella typhimurium [16])	MIC (Talaromyces funiculosus [17])	MBC (Enterococcus faecalis [18])	MBC (Listeria monocytogenes [19])	MIC (Aspergillus fumigatus [20])	MIC (Listeria monocytogenes [21])	other results
CNc1nc(C)c(C(=O)/C=C/c2ccccc2Cl)s1	612 µM (≈ 179 µg/mL)	76.4 µM (≈ 22.4 µg/mL)	153 µM (≈ 44.8 µg/mL)	229 µM (≈ 67.1 µg/mL)	306 µM (≈ 89.5 µg/mL)	306 µM (≈ 89.5 µg/mL)	306 µM (≈ 89.5 µg/mL)	15.3	459 µM (≈ 134 µg/mL)	229 µM (≈ 67.1 µg/mL)	612 µM (≈ 179 µg/mL)	260 µM (≈ 76.1 µg/mL)	306 µM (≈ 89.5 µg/mL)	153 µM (≈ 44.8 µg/mL)	459 µM (≈ 134 µg/mL)	306 µM (≈ 89.5 µg/mL)	153 µM (≈ 44.8 µg/mL)	459 µM (≈ 134 µg/mL)	306 µM (≈ 89.5 µg/mL)	306 µM (≈ 89.5 µg/mL)	Ratio (Enterococcus faecalis [9]): 3; MIC (Micrococcus flavus [22]): 229 µM (≈ 67.1 µg/mL); MBC (Pseudomonas aeruginosa [23]): 306 µM (≈ 89.5 µg/mL); MBC (Staphylococcus aureus [24]): 459 µM (≈ 134 µg/mL); MFC (Penicillium ochrochloron [25]): 459 µM (≈ 134 µg/mL); MFC (Trichoderma viride [26]): 306 µM (≈ 89.5 µg/mL); MFC (Aspergillus fumigatus [27]): 612 µM (≈ 179 µg/mL); MFC (Aspergillus versicolor [28]): 459 µM (≈ 134 µg/mL); MIC (Pseudomonas aeruginosa [29]): 260 µM (≈ 76.1 µg/mL); MBC (Escherichia coli [30]): 306 µM (≈ 89.5 µg/mL); MFC (Aspergillus ochraceus [31]): 459 µM (≈ 134 µg/mL); MIC (Staphylococcus aureus [32]): 306 µM (≈ 89.5 µg/mL); MIC (Aspergillus ochraceus [33]): 306 µM (≈ 89.5 µg/mL)
CNc1nc(C)c(C(=O)/C=C/c2ccc(Cl)cc2)s1	340 µM (≈ 99.5 µg/mL)	171 µM (≈ 50.1 µg/mL)	170 µM (≈ 49.8 µg/mL)	290 µM (≈ 85.1 µg/mL)	290 µM (≈ 85.1 µg/mL)	340 µM (≈ 99.5 µg/mL)	513 µM (≈ 150 µg/mL)	17	170 µM (≈ 49.8 µg/mL)	342 µM (≈ 100 µg/mL)	340 µM (≈ 99.5 µg/mL)	342 µM (≈ 100 µg/mL)	170 µM (≈ 49.8 µg/mL)	170 µM (≈ 49.8 µg/mL)	342 µM (≈ 100 µg/mL)	170 µM (≈ 49.8 µg/mL)	342 µM (≈ 100 µg/mL)	513 µM (≈ 150 µg/mL)	170 µM (≈ 49.8 µg/mL)	342 µM (≈ 100 µg/mL)	Ratio (Micrococcus flavus [34]): 3; MIC (Micrococcus flavus [22]): 85.4 µM (≈ 25 µg/mL); MBC (Pseudomonas aeruginosa [23]): 342 µM (≈ 100 µg/mL); MBC (Staphylococcus aureus [24]): 684 µM (≈ 200 µg/mL); MFC (Penicillium ochrochloron [25]): 513 µM (≈ 150 µg/mL); MFC (Trichoderma viride [26]): 340 µM (≈ 99.5 µg/mL); MFC (Aspergillus fumigatus [27]): 340 µM (≈ 99.5 µg/mL); MFC (Aspergillus versicolor [28]): 340 µM (≈ 99.5 µg/mL); MIC (Pseudomonas aeruginosa [29]): 256 µM (≈ 75.1 µg/mL); MBC (Escherichia coli [30]): 342 µM (≈ 100 µg/mL); MFC (Aspergillus ochraceus [31]): 513 µM (≈ 150 µg/mL); MIC (Staphylococcus aureus [32]): 513 µM (≈ 150 µg/mL); MIC (Aspergillus ochraceus [33]): 340 µM (≈ 99.5 µg/mL)
CNc1nc(C)c(C(=O)/C=C/c2ccc(OC)cc2)s1	683 µM (≈ 197 µg/mL)	171 µM (≈ 49.3 µg/mL)	170 µM (≈ 49 µg/mL)	342 µM (≈ 98.6 µg/mL)	342 µM (≈ 98.6 µg/mL)	340 µM (≈ 98 µg/mL)	342 µM (≈ 98.6 µg/mL)	34	513 µM (≈ 148 µg/mL)	290 µM (≈ 83.8 µg/mL)	513 µM (≈ 148 µg/mL)	171 µM (≈ 49.3 µg/mL)	340 µM (≈ 98 µg/mL)	170 µM (≈ 49 µg/mL)	513 µM (≈ 148 µg/mL)	340 µM (≈ 98 µg/mL)	171 µM (≈ 49.3 µg/mL)	513 µM (≈ 148 µg/mL)	170 µM (≈ 49 µg/mL)	342 µM (≈ 98.6 µg/mL)	Ratio (Micrococcus flavus [34]): 3; MIC (Micrococcus flavus [22]): 85.4 µM (≈ 24.6 µg/mL); MBC (Pseudomonas aeruginosa [23]): 513 µM (≈ 148 µg/mL); MBC (Staphylococcus aureus [24]): 342 µM (≈ 98.6 µg/mL); MFC (Penicillium ochrochloron [25]): 513 µM (≈ 148 µg/mL); MFC (Trichoderma viride [26]): 513 µM (≈ 148 µg/mL); MFC (Aspergillus fumigatus [27]): 513 µM (≈ 148 µg/mL); MFC (Aspergillus versicolor [28]): 513 µM (≈ 148 µg/mL); MIC (Pseudomonas aeruginosa [29]): 342 µM (≈ 98.6 µg/mL); MBC (Escherichia coli [30]): 513 µM (≈ 148 µg/mL); MFC (Aspergillus ochraceus [31]): 513 µM (≈ 148 µg/mL); MIC (Staphylococcus aureus [32]): 290 µM (≈ 83.8 µg/mL); MIC (Aspergillus ochraceus [33]): 340 µM (≈ 98 µg/mL)
